We go through 3 compounds from patent publication US11369127B2, “Sweetener and flavor compositions, methods of making and methods of use thereof” (EPC Natural Products Co., Ltd., priority 2018, dated 2022).

The nature of data set [1]: Sensory evaluation of GSGs and SGs, Thaumatin, NHDC and combinations (Ex. 255). The arrangement: species or system human. As to conditions: in water; 4.5 ppm Thaumatin and/or 50 ppm GSGs and SGs, NHDC 1-5 ppm. The protocol:
4.5 ppm Thaumatin (equivalent to 10 ppm EPCalin) was dissolved in water. Increasing amounts of NHDC (1-5 ppm) were added to the solution and the sensory properties were evaluated.
50 ppm (GSGs and SGs) were dissolved in water. Increasing amounts of NHDC (1-5 ppm) were added to the solution and the sensory properties were evaluated.
50 ppm (GSGs and SGs) and 4.5 ppm Thaumatin (equivalent to 10 ppm EPCalin) were dissolved in water. Increasing amounts of NHDC (1-5 ppm) were added to the solution and the sensory properties were evaluated.
Sweetness intensity was rated on 5-point scale

Data set [2] is described as follows: Stevia-derived MRPs with NHDC and Thaumatin, also in Redbull sugarfree (Ex. 261). The arrangement: species or system human. The note with it: 150 μl sample in 100 ml Redbull sugar free. Here is the method:
150 μl of the each sample was added to 100 ml Redbull sugar free and mixed. The taste profiles of the samples were compared. As a control, a RedBull sugar free sample without the addition of Steviaroma was used.
Before tasting the tasters discussed the upcoming series of samples and tasted samples with predetermined attributes with varying intensities to find a commonality in description. Four trained tasters blind taste tested independently all samples of a series. They were allowed to re-taste and made notes for the sensory attributes perceived including the relative intensity.
In the last step the attributes noted were discussed openly to find an acceptable description. In case that more than 1 taster disagreed with the description, the tasting was repeated.

Data set [3] is described as follows: Kinetics of reaction in dependence of pH-conditions (degradation of Phe and Reb-A, Gluc, Xyl, Suc by HPLC/MS). The protocol: Quantitative evaluation was performed using external standardization.
Kinetics of Reaction in Dependence of pH-Conditions

The nature of data set [4]: DPPH radical-scavenging activity (Ex. 65). The class given is biochemical. As to conditions: iron-III reduction and DPPH radical scavenging (FIG. 49, 50); 100° C., 0-5 hours. Here is the method: 1 mg 1,1-Diphenyl-2-picrylhydrazyl radical (DPPH)/ml ethanol, dilution to assay concentration were prepared in ethanol (40 μg/mL); Calibration samples were prepared with Ascorbic acid in a concentration of 0-10 μg/mL; as a negative control sample, water was used.
Samples in aqueous solution were used as such or diluted with water.
A 0.1 ml sample (or calibration standard) was mixed with 3.9 ml solution of DPPH (100 μMolar) and reacted while protected from light at room temperature for 30 min. Absorbance was determined at 517 nm against ethanol.
10 mM of amino acid and/or 10 mM sugar were dissolved in 10 ml 0.1 mM KH2PO4-buffer, pH=7.8.
The samples were kept at 100° C. in sealed glass vials (Pyrex 15 ml with screw caps) for 0 (before reaction), 2.5 or 5.0 hours. Thereafter the samples were transferred to an ice water bath and cooled down to room temperature. These samples were diluted 1:10 and used for the test assay for anti-oxidant potential.
For orientation: The DPPH test is a chemical assay of radical scavenging.

“Also recorded” adds a separate entry of the source.

Regarding `COc1ccc(CCC(=O)c2c(O)cc(O[C@@H]3O[C@H](CO)[C@@H](O)[C@H](O)[C@H]3O[C@@H]3O[C@@H](C)[C@H](O)[C@@H](O)[C@H]3O)cc2O)cc1O` [NHDC, Neohesperidin dihydrochalcone], the “sensory properties of combinations with NHDC” value in data set [1] is on record as “long lasting lingering; also recorded: boosts the lingering”. Also, the “taste profile in sugarfree beverage” value in data set [2] is “improved the mouth-feel and harmony of taste impression yielding a substantially improved taste profile”.
For the compound `O=C(O)[C@H](Cc1ccccc1)NCC(=O)[C@@H](O)[C@H](O)[C@H](O)CO` [MRI (Phe-Glu)], the figures for the “% formation from degraded Phe” value in data set [3] (pH = 5.5), in data set [3] (pH = 7.0) and in data set [3] (pH = 8.5) were less than 0.10%, 0.54% and 0.84%, respectively.
Regarding `C=C1C[C@@]23CC[C@H]4[C@@](C)(CCC[C@@]4(C)C(=O)O[C@@H]4O[C@H](CO)[C@@H](O)[C@H](O)[C@H]4O)[C@@H]2CC[C@]1(O[C@@H]1O[C@H](CO)[C@@H](O)[C@H](O[C@@H]2O[C@H](CO)[C@@H](O)[C@H](O)[C@H]2O)[C@H]1O[C@@H]1O[C@H](CO)[C@@H](O)[C@H](O)[C@H]1O)C3` [Reb-A, Rebaudioside A], the anti-oxidant properties result in data set [4] is “substantial anti-oxidant properties”.
